Earlier results, collected in patent US6051685A, “Peptide derivatives” (Daiichi Pharmaceuticals Co., Ltd., priority 1994, dated 2000).

Tests used:
[1] = in vivo
[2] = intraventricular administration

In the case of C[C@@H](NC(=O)[C@@H](N)Cc1ccc(O)cc1)C(=O)N[C@@H](Cc1ccccc1)C(=O)NCC(=O)N[C@@H](Cc1ccc(O)cc1)C(=O)N1CCC[C@H]1C(=O)N[C@@H](CO)C(N)=O [Delmorfine, Dermorphin], the “stability in living bodies” value [1] is listed as “relatively stable in living bodies” and the “analgesic effect relative to morphine” value [2] is listed as “about 1,000 fold”.
